This is an account of results in PubChem BioAssay (NCI).

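96-well plates; 48 h exposure; 5 concentrations. Endpoints by linear interpolation between flanking doses. Not reached: highest tested concentration assigned. GI50 = concentration required for 50% inhibition of growth. The concentration for full growth arrest is given as TGI.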 Where only a bound is given, the exact number is not on record here.

Test systems include TK-10 renal; SW-620 colon; NCI-H23 lung; LOX IMVI melanoma; HCC-2998 colon; SK-MEL-5 melanoma; HOP-92 NSCLC; PC-3 prostate; IGROV1 ovarian; CAKI-1 renal.
Holding throughout (test): NCI-60 cell line screen, 48 h

As for `Cc1ccc2c(C(C[N+](=O)[O-])c3cccs3)c(-c3ccccc3)[nH]c2c1` (centres undefined), the GI50 in the test with TK-10 renal was 7.46 µM; with SW-620 colon, 1.39 µM; with NCI-H23 lung, 1.88 µM; with LOX IMVI melanoma, 1.78 µM; with HCC-2998 colon, 3.61 µM; in the test with SK-MEL-5 melanoma, 1.07 µM. For the same compound, the GI50 is 4.03 µM in the test with HOP-92 NSCLC, 2.46 µM in the test with PC-3 prostate, 1.12 µM in the test on IGROV1 ovarian and 1.04 µM with CAKI-1 renal. The TGI in the test on TK-10 renal amounted to 18.5 µM; in the test with SW-620 colon, 8.12 µM; with NCI-H23 lung it was 8.18 µM; with LOX IMVI melanoma it was 6.05 µM; in the test on HCC-2998 colon, 8.01 µM; in the test on SK-MEL-5 melanoma, 4.21 µM. Moreover, the TGI stood at 9.24 µM in the test on HOP-92 NSCLC, 16.1 µM with PC-3 prostate, 5.81 µM in the test on IGROV1 ovarian and 5.12 µM with CAKI-1 renal.

With `CCOc1ccc(S(=O)(=O)/N=C2\C=C(SCC(=O)O)C(=O)c3ccccc32)cc1`, the GI50 is 26.5 µM in the test on TK-10 renal; 3.31 µM in the test on SW-620 colon; 2.81 µM with NCI-H23 lung; 2.31 µM in the test with LOX IMVI melanoma; 14.8 µM in the test on HCC-2998 colon; 1.72 µM with SK-MEL-5 melanoma. Also, the GI50 is 2.61 µM in the test with HOP-92 NSCLC, 2.92 µM in the test on PC-3 prostate, 2.14 µM in the test on IGROV1 ovarian and 7.76 µM in the test on CAKI-1 renal. Moreover, the TGI was 56.9 µM in the test on TK-10 renal; 11.1 µM with SW-620 colon; 14.2 µM with NCI-H23 lung; 10.2 µM with LOX IMVI melanoma; 28.2 µM in the test with HCC-2998 colon; 3.1 µM with SK-MEL-5 melanoma. Also, the TGI with HOP-92 NSCLC is 5.21 µM; with PC-3 prostate it was 13.1 µM; in the test with IGROV1 ovarian it was 4.34 µM; in the test on CAKI-1 renal, 20.8 µM.

For the compound `C#Cc1cnc(=O)n(C2CC(O)C(CO)O2)c1` (centres undefined), the GI50 in the test with TK-10 renal, with SW-620 colon, in the test on NCI-H23 lung, with LOX IMVI melanoma, in the test on HCC-2998 colon and in the test with SK-MEL-5 melanoma was more than 100 µM throughout. Besides, the GI50 in the test with PC-3 prostate was 3.36 µM; in the test on IGROV1 ovarian, more than 100 µM; in the test on CAKI-1 renal, more than 62.2 µM. In addition, the TGI with TK-10 renal, in the test with SW-620 colon, in the test on NCI-H23 lung, with LOX IMVI melanoma, with HCC-2998 colon and with SK-MEL-5 melanoma was more than 100 µM in each case. The TGI is more than 43.2 µM in the test on HOP-92 NSCLC, 11.3 µM with PC-3 prostate, more than 100 µM in the test with IGROV1 ovarian and more than 100 µM with CAKI-1 renal.

For `COc1cc(/C=C\[N+](=O)[O-])ccc1O`, the GI50 with TK-10 renal was 1.72 µM; in the test with SW-620 colon, 2.1 µM; in the test with NCI-H23 lung, 3.34 µM; in the test on LOX IMVI melanoma it was 1.74 µM; in the test with HCC-2998 colon, 1.98 µM; in the test with SK-MEL-5 melanoma it was 1.77 µM. Besides, the GI50 with HOP-92 NSCLC was 1.26 µM; with PC-3 prostate, 8.63 µM; in the test on IGROV1 ovarian it was 2.61 µM; with CAKI-1 renal it was 2.85 µM. In addition, the TGI in the test on TK-10 renal was 3.41 µM; with SW-620 colon, 5.02 µM; in the test with NCI-H23 lung, 11.4 µM; in the test on LOX IMVI melanoma it was 3.39 µM; in the test with HCC-2998 colon, 3.63 µM; in the test with SK-MEL-5 melanoma, 3.24 µM. Moreover, the TGI in the test with HOP-92 NSCLC amounted to 3.73 µM; in the test on PC-3 prostate, 21.6 µM; with IGROV1 ovarian it was 6.97 µM; in the test with CAKI-1 renal it was 10.9 µM.

Take `CC(C)(C)c1cc(O)c(O)c(C(C)(C)C)c1`: the GI50 is 3.08 µM in the test on TK-10 renal; 1.8 µM in the test with SW-620 colon; 3.64 µM in the test on NCI-H23 lung; 3.05 µM with LOX IMVI melanoma; 4.44 µM in the test on HCC-2998 colon; 4.68 µM in the test on SK-MEL-5 melanoma. Further, the GI50 in the test on HOP-92 NSCLC was 1.36 µM; in the test with PC-3 prostate, 3.55 µM; in the test with IGROV1 ovarian, 2.56 µM; in the test on CAKI-1 renal, 2.79 µM. Moreover, the TGI in the test with TK-10 renal came to 7.4 µM; in the test with SW-620 colon it was 3.23 µM; in the test on NCI-H23 lung it was 14.2 µM; with LOX IMVI melanoma, 12.9 µM; with HCC-2998 colon, 16.6 µM; in the test with SK-MEL-5 melanoma, 15.8 µM. In addition, the TGI in the test with HOP-92 NSCLC is 4.6 µM; in the test with PC-3 prostate, 15.9 µM; in the test with IGROV1 ovarian it was 5.27 µM; with CAKI-1 renal it was 8.63 µM.

`COc1cc(-n2cc(-c3ccc(Cl)c(Cl)c3)nc2SCc2ccccc2)cc(OC)c1OC`: the GI50 in the test with TK-10 renal, with SW-620 colon, in the test with NCI-H23 lung, in the test on LOX IMVI melanoma, in the test on HCC-2998 colon and in the test on SK-MEL-5 melanoma was more than 100 µM each time. For the same compound, the GI50 is more than 100 µM in the test with HOP-92 NSCLC, 38.9 µM in the test with PC-3 prostate, more than 100 µM with IGROV1 ovarian and more than 100 µM in the test with CAKI-1 renal. For the same compound, the TGI in the test on TK-10 renal, in the test with SW-620 colon, with NCI-H23 lung, in the test with LOX IMVI melanoma, in the test with HCC-2998 colon and in the test with SK-MEL-5 melanoma was more than 100 µM in each case. In addition, the TGI with HOP-92 NSCLC, in the test on PC-3 prostate, in the test with IGROV1 ovarian and in the test with CAKI-1 renal was more than 100 µM each time.

As for `COc1ccc(C(=O)Nc2ncc(Cc3ccc(Cl)cc3)s2)cc1`, the GI50 with TK-10 renal was 3.94 µM; with SW-620 colon it was 0.0455 µM; in the test on NCI-H23 lung it was 0.239 µM; in the test with LOX IMVI melanoma it was 0.0628 µM; with HCC-2998 colon it was 0.166 µM; with SK-MEL-5 melanoma, 0.0419 µM. The GI50 in the test on HOP-92 NSCLC was 3.71 µM; in the test on PC-3 prostate it was 0.0528 µM; in the test on IGROV1 ovarian, 0.0825 µM; with CAKI-1 renal, 0.0471 µM. In addition, the TGI with TK-10 renal is more than 100 µM; in the test on SW-620 colon, more than 100 µM; in the test on NCI-H23 lung it was more than 100 µM; in the test with LOX IMVI melanoma, more than 100 µM; with HCC-2998 colon, 12.7 µM; in the test with SK-MEL-5 melanoma it was 2.83 µM. The TGI in the test with HOP-92 NSCLC is more than 100 µM; in the test on PC-3 prostate it was more than 100 µM; with IGROV1 ovarian, more than 100 µM; in the test on CAKI-1 renal, more than 73.1 µM.
